Data from ChEMBL document CHEMBL5096183, “Contemporary advances of cyclic molecules proposed for inflammation” (Eur J Med Chem, 2021).
Blank lines part the entries; values can stand above or below the compound they belong to.

Columns and labels:
[1] = test system: RAW264.7; experiment: Anti-inflammatory activity against LPS induced mouse RAW264.7 cells assessed as suppression of TNFalpha cytokine level at 20 uM incubated for 24 hrs by ELISA assay relative to control; format: functional
[2] = test system: Rattus norvegicus; experiment: Anti-inflammatory activity against carrageenan-induced hind paw edema in rat at 20 mg/kg, PO measured after 5 hrs relative to control; format: functional
[3] = test system: Rattus norvegicus; experiment: Anti-inflammatory activity against carrageenan-induced paw edema in Wistar albino rat at 10 mg/kg, po pretreated for 1 hr followed by carrageenan addition measured after 6 hrs by plethysmometer relative to control; format: functional; conditions: time 7 hrs
[4] = test system: Rattus norvegicus; experiment: Anti-inflammatory activity against carrageenan-induced paw edema in Wistar albino rat model assessed as inhibition of paw edema at 20 mg/kg, PO relative to control; format: functional
[5] = test system: Mus musculus; experiment: Analgesic activity in albino […] mouse assessed as increase in reaction on paw licking at 100 mg/kg, po pretreated for 1 hrs followed by hot plate treatment measured after 90 mins by analgesiometer based analysis relative to control; format: functional; conditions: time 2.5 hrs
[6] = test system: Rattus norvegicus; experiment: Antiulcer activity against ulceration induced albino Wistar rat assessed as ulcerogenic index pretreated daily at 25 mg/kg for 4 days followed by 24 hrs fasting prior to pylorus ligation measured after 4 hrs; format: functional; conditions: time 124 hrs
[7] = test system: Erythrocyte; experiment: Anti-inflammatory against heat induced human red blood cells assessed as inhibition of heat induced hemolysis by measuring membrane stabilization for at 100 ug/ml incubated for 30 mins relative to control; format: functional; conditions: 0.5 h
[8] = organism: Homo sapiens; experiment: Inhibition of proteinase (unknown origin) at 100 ug/ml using casein as substrate preincubated for 5 mins followed by addition of substrate for 20 mins relative to control; conditions: dose 100.0 µg/ml
[9] = test system: Rattus norvegicus; experiment: Anti-inflammatory activity against carrageenan-induced paw edema in Sprague-Dawley rat at 30 mg/kg, IP pretreated for 30 mins followed by carrageenan addition measured after 4 hrs relative to control; format: functional; conditions: time 4.5 hrs
[10] = test system: Rattus norvegicus; experiment: Anti-inflammatory activity against carrageenan induced paw edema in rat assessed as inhibition of paw edema at 12.5 mg/kg,PO pretreated for 1 hrs followed by carrageenan addition for 4 hrs by plethysmographic analysis relative to control; format: functional; conditions: time 5 hrs
[11] = test system: Rattus norvegicus; experiment: Anti-inflammatory activity against carrageenan-induced paw edema in rat relative to control; format: functional
[12] = test system: Rattus norvegicus; experiment: Anti-inflammatory activity against formalin-induced foot paw edema in Wistar rat assessed as oedema inhibition at 10 mg/kg,po measured after 6 hrs by plethysmometric analysis relative to control; format: functional
[13] = test system: Rattus norvegicus; experiment: Anti-inflammatory activity against formalin-induced foot paw edema in Wistar rat assessed as oedema inhibition at 10 mg/kg,po measured after 3 hrs by plethysmometric analysis relative to control; format: functional
[14] = test system: Rattus norvegicus; experiment: Anti-inflammatory activity against formalin-induced foot paw edema in Wistar rat assessed as oedema inhibition at 10 mg/kg,po measured after 1 hrs by plethysmometric analysis relative to control; format: functional
[15] = test system: Rattus norvegicus; experiment: Anti-inflammatory activity against carrageenan-induced paw oedema in 12 hrs fasted Albino rat assessed as inhibition of oedema formation administered intraperitoneally measured after 3 hrs relative to control; format: functional; conditions: route ip
[16] = Ulcerogenic activity in 12 hrs fasted Albino rat assessed as ulcerogenic index at […] per day, po for 3 days; format: toxicity, organism-based; conditions: in vivo, 72 h, time 3 day
[17] = test system: Rattus norvegicus; experiment: Acute ulcerogenic activity in 18 hrs fasted Wistar rat at 60 mg/kg, po treated for 6 hrs relative to control; format: functional
[18] = test system: Rattus norvegicus; experiment: Anti-inflammatory activity against carrageenan-induced paw edema in po dosed Wistar rat pretreated for 1 hrs followed by carrageenan addition measured after 3 hrs; format: functional; conditions: time 4 hrs
[19] = test system: Mus musculus; experiment: Analgesic activity in hot plate induced thermal pain Swiss albino mouse model assessed as change in latency at 10 mg/kg, po measured at 1 to 2 hrs relative to control; format: functional; conditions: time 1-2 hrs
[20] = test system: Mus musculus; experiment: Anti-inflammatory activity against Carrageenan-induced paw edema in Swiss albino mouse assessed as change in paw volume at 10 mg/kg, PO measured after 6 hrs by plethysmometric analysis relative to control; format: functional
[21] = test system: Rattus norvegicus; experiment: Anti-inflammatory activity against Cotton pellets induced granuloma in Albino rat at 20 mg/kg, po administered for 7 days measured on day 8 by measuring pellet weight relative to control; format: functional; conditions: time 8 day
[22] = test system: Rattus norvegicus; experiment: Acute anti-inflammatory activity against carrageenan induced paw edema in Albino rat at 20 mg/kg, po pretreated for 30 mins followed by carrageenan addition measured every hour for 3 hrs by plethysmography method relative to control; format: functional; conditions: time 3.5 hrs
[23] = test system: Rattus norvegicus; experiment: Anti-inflammatory activity against carrageenan-induced paw edema in Wistar rat at 20 mg/kg, po assessed as paw edema volume measured after 4 hrs by plethysmometric analysis relative to control; format: functional

Structure (SMILES): O=C1/C(=C\c2ccc(F)cc2)C=C(c2ccc(F)cc2)N1Cc1ccccc1Cl
Activity [1]: 60.9%
inhibition in vivo at 20 mg/kg [2]: 71.5%

Structure (SMILES): O=C1/C(=C\c2ccc(F)cc2)C=C(c2ccc(F)cc2)N1Cc1ccc(F)cc1
Activity [1]: 65.03%
inhibition in vivo at 20 mg/kg [2]: 76.2%

Structure (SMILES): CC(C)Cc1ccc(C(C)C(=O)c2ccc(OCc3cn(Cc4ccc([N+](=O)[O-])cc4)nn3)cc2O)cc1 (centres undefined)
inhibition in vivo at 10 mg/kg [3]: 94.2%

Structure (SMILES): COc1cc(Cc2nc3cc(NC(=O)c4ccc(Cl)cc4)ccc3o2)cc(OC)c1OC
inhibition in vivo at 20 mg/kg [4]: 79.5%

Structure (SMILES): Cc1ccc(-c2nnc(CCC(=O)N/N=C3\C(=O)Nc4ccccc43)o2)cc1
Activity [5]: 83.17%

Structure (SMILES): CCOC(=O)c1cc(N)n(C(=O)c2csc(-c3ccccc3)n2)n1
Activity [6]: 0.44

inhibition [8]: 80.2%
Structure (SMILES): O=Cc1cc2cccc(-c3nc4ccccc4o3)c2nc1Cl
inhibition at 100 µg/mL [7]: 74.3%

Structure (SMILES): CCOC(=O)CSc1nnc(Cc2ccccc2)n1C1CCCCC1
inhibition in vivo at 30 mg/kg [9]: 62.5%

Structure (SMILES): S=c1oc(-c2csc(-c3ccccc3)n2)nn1CN1CCCCC1
Activity [6]: 0.44

Structure (SMILES): O=C(O)Cc1ccccc1Nc1c(Cl)cccc1Cl [DICLOFENAC]
inhibition in vivo at 12.5 mg/kg [10]: 94%
Activity [11]: 85.6%
inhibition in vivo at 10 mg/kg [12]: 41.7%
inhibition in vivo at 10 mg/kg [13]: 40.7%
inhibition in vivo at 10 mg/kg [14]: 41.7%

Structure (SMILES): Cc1ccc(S(=O)(=O)N2CC(O)CC2C(=O)Nc2nc3ccccc3s2)cc1 (centres undefined)
inhibition (INH) [15]: 78%
Activity_index [16]: 0.89

Structure (SMILES): O=C(CCc1nnc(-c2ccc(O)cc2)o1)N/N=C1\C(=O)Nc2ccccc21
Activity [5]: 84.11%

Structure (SMILES): CC(C)Cc1ccc(C(C)C(=O)O)cc1 (centres undefined) [IBUPROFEN]
Activity [17]: 69.5%
inhibition in vivo at 20 mg/kg [4]: 65.9%
inhibition in vivo at 10 mg/kg [3]: 94.7%
ED50 [18]: 15 µmol/kg

inhibition [8]: 85.3%
Structure (SMILES): Clc1cc(Cl)c2cccc(-c3nc4ccccc4o3)c2n1
inhibition at 100 µg/mL [7]: 80.2%

Structure (SMILES): CC(C(=O)O)C(O)(c1ccccc1)c1ccccc1 (centres undefined)
ED50 [18]: 15 µmol/kg

Structure (SMILES): Nc1cc(-c2ccccc2)nn1C(=O)c1csc(-c2ccccc2)n1
Activity [6]: 0.44

Structure (SMILES): C/C(=N/Nc1ccc(C(=O)O)cc1)c1cccc(N2C(=O)c3ccccc3C2=O)c1
inhibition in vivo at 10 mg/kg [12]: 29.2%
inhibition in vivo at 10 mg/kg [13]: 22.2%
inhibition in vivo at 10 mg/kg [14]: 29.2%

Structure (SMILES): CN1C(C(=O)Nc2ccccn2)=C(O)c2ccccc2S1(=O)=O [PIROXICAM]
inhibition in vivo at 10 mg/kg [19]: 75%

Structure (SMILES): COc1ccc(C2CC(c3ccc(F)cc3O)=NN2)cc1 (centres undefined)
Activity [20]: 54%

Structure (SMILES): O=C(Nc1nc2ccccc2s1)C(Cc1cc2ccccc2[nH]1)N(C(=O)c1ccccc1)S(=O)(=O)c1ccc([N+](=O)[O-])cc1 (centres undefined)
inhibition (INH) [15]: 80%
Activity_index [16]: 0.82

inhibition [8]: 75.2%
Structure (SMILES): C(=N\c1ccccc1-c1nc2ccccc2o1)/c1cccs1
inhibition at 100 µg/mL [7]: 70.2%

Structure (SMILES): O=C([O-])Cc1ccccc1Nc1c(Cl)cccc1Cl.[Na+] [DICLOFENAC SODIUM]
Activity [17]: 64.7%
Activity [6]: 4.67
Activity [21]: 60.2%

Structure (SMILES): O=C(O)CC(O)(c1ccccc1)c1ccccc1
ED50 [18]: 15 µmol/kg

Structure (SMILES): CN(C)CCC(=O)Nc1ccc2oc(Cc3ccc(Cl)cc3)nc2c1
Activity [21]: 48.4%
Activity [22]: 72%

Structure (SMILES): Cc1ccc(N(O)/N=N/c2ccc(S(=O)(=O)Nc3nc(C)cc(C)n3)cc2)cc1
inhibition in vivo at 12.5 mg/kg [10]: 97.1%

Structure (SMILES): COc1ccccc1OC(=O)c1cc(OC)c(OC)c(OC)c1
inhibition in vivo at 20 mg/kg [23]: 77.1%

Structure (SMILES): O=C(CCN1CCN(c2ccc([N+](=O)[O-])cc2)CC1)Nc1ccc2oc(Cc3ccc(Cl)cc3)nc2c1
Activity [21]: 44%
Activity [22]: 81.7%

Structure (SMILES): O=C(CCN1CCN(c2cccc(Cl)c2Cl)CC1)Nc1ccc2oc(Cc3ccc(Cl)cc3)nc2c1
Activity [21]: 39.3%
Activity [22]: 77.6%

Structure (SMILES): COc1ccc2c(c1)c(CC(=O)O)c(C)n2C(=O)c1ccc(Cl)cc1 [INDOMETHACIN]
Activity [1]: 68.84%
Activity [5]: 85.84%
inhibition in vivo at 20 mg/kg [2]: 81%
inhibition in vivo at 20 mg/kg [23]: 81.9%

Structure (SMILES): COc1ccc(/C=C/C(=O)c2ccc(F)cc2O)cc1
Activity [20]: 54%
